Laboratory results from the NIST ThermoML archive (doi:10.1021/je7000446).
± gives the expanded uncertainty stated by the source.

Assay: relative permittivity at various frequencies (dimensionless)
Conditions: Fluid (supercritical or subcritical phases), Frequency=0.06 MHz, Parallel plate capacitor

COC(F)(F)C(F)(F)F [methyl pentafluoroethyl ether]
relative permittivity (312.9 K, 1500 kPa): 6.94 ± 0.51
relative permittivity (312.9 K, 3200 kPa): 7 ± 0.52
relative permittivity (312.9 K, 6100 kPa): 7.08 ± 0.52
relative permittivity (312.9 K, 8300 kPa): 7.14 ± 0.53
relative permittivity (312.9 K, 10400 kPa): 7.2 ± 0.53
relative permittivity (312.9 K, 12500 kPa): 7.25 ± 0.54
relative permittivity (312.9 K, 14400 kPa): 7.29 ± 0.54
relative permittivity (312.9 K, 16500 kPa): 7.34 ± 0.54
relative permittivity (312.9 K, 18300 kPa): 7.37 ± 0.55
relative permittivity (312.9 K, 26200 kPa): 7.51 ± 0.56
relative permittivity (312.9 K, 27800 kPa): 7.53 ± 0.56
relative permittivity (318 K, 1500 kPa): 6.78 ± 0.5
relative permittivity (318 K, 3200 kPa): 6.85 ± 0.51
relative permittivity (318 K, 6300 kPa): 6.95 ± 0.51
relative permittivity (318 K, 8300 kPa): 7.01 ± 0.52
relative permittivity (318 K, 10400 kPa): 7.06 ± 0.52
relative permittivity (318 K, 12400 kPa): 7.11 ± 0.53
relative permittivity (318 K, 14100 kPa): 7.15 ± 0.53
relative permittivity (318 K, 16400 kPa): 7.19 ± 0.53
relative permittivity (318 K, 18300 kPa): 7.22 ± 0.53
relative permittivity (318 K, 20400 kPa): 7.27 ± 0.54
relative permittivity (318 K, 22200 kPa): 7.29 ± 0.54
relative permittivity (318 K, 23800 kPa): 7.31 ± 0.54
relative permittivity (323.4 K, 2000 kPa): 6.65 ± 0.49
relative permittivity (323.4 K, 3200 kPa): 6.69 ± 0.5
relative permittivity (323.4 K, 4400 kPa): 6.73 ± 0.5
relative permittivity (323.4 K, 6600 kPa): 6.79 ± 0.5
relative permittivity (323.4 K, 8300 kPa): 6.84 ± 0.51
relative permittivity (323.4 K, 10100 kPa): 6.89 ± 0.51
relative permittivity (323.4 K, 12200 kPa): 6.94 ± 0.51
relative permittivity (323.4 K, 14000 kPa): 7 ± 0.52
relative permittivity (323.4 K, 16000 kPa): 7.05 ± 0.52
relative permittivity (323.4 K, 18000 kPa): 7.09 ± 0.52
relative permittivity (323.4 K, 20000 kPa): 7.12 ± 0.53
relative permittivity (323.4 K, 22200 kPa): 7.16 ± 0.53
relative permittivity (323.4 K, 24400 kPa): 7.2 ± 0.53
relative permittivity (323.4 K, 26300 kPa): 7.24 ± 0.54
relative permittivity (323.4 K, 28400 kPa): 7.27 ± 0.54

CC(F)(F)F [1,1,1-trifluoroethane]
relative permittivity (302.8 K, 1600 kPa): 9.28 ± 0.69
relative permittivity (302.8 K, 4000 kPa): 9.44 ± 0.7
relative permittivity (302.8 K, 6200 kPa): 9.56 ± 0.71
relative permittivity (302.8 K, 8200 kPa): 9.67 ± 0.72
relative permittivity (302.8 K, 10200 kPa): 9.77 ± 0.72
relative permittivity (302.8 K, 12300 kPa): 9.86 ± 0.73
relative permittivity (302.8 K, 16200 kPa): 10.02 ± 0.74
relative permittivity (302.8 K, 18500 kPa): 10.1 ± 0.75
relative permittivity (302.8 K, 20100 kPa): 10.16 ± 0.75
relative permittivity (302.8 K, 22000 kPa): 10.24 ± 0.76
relative permittivity (302.8 K, 24200 kPa): 10.31 ± 0.76
relative permittivity (302.8 K, 26300 kPa): 10.38 ± 0.77
relative permittivity (302.8 K, 28300 kPa): 10.44 ± 0.77
relative permittivity (302.8 K, 30700 kPa): 10.51 ± 0.78
relative permittivity (313.2 K, 1700 kPa): 8.61 ± 0.64
relative permittivity (313.2 K, 2700 kPa): 8.69 ± 0.64
relative permittivity (313.2 K, 4200 kPa): 8.82 ± 0.65
relative permittivity (313.2 K, 6300 kPa): 8.96 ± 0.66
relative permittivity (313.2 K, 8000 kPa): 9.05 ± 0.67
relative permittivity (313.2 K, 8800 kPa): 9.12 ± 0.68
relative permittivity (313.2 K, 14200 kPa): 9.39 ± 0.7
relative permittivity (313.2 K, 16300 kPa): 9.49 ± 0.7
relative permittivity (313.2 K, 18400 kPa): 9.58 ± 0.71
relative permittivity (313.2 K, 20400 kPa): 9.67 ± 0.72
relative permittivity (313.2 K, 21800 kPa): 9.73 ± 0.72
relative permittivity (313.2 K, 24200 kPa): 9.81 ± 0.73
relative permittivity (313.2 K, 26100 kPa): 9.87 ± 0.73
relative permittivity (313.2 K, 28400 kPa): 9.9 ± 0.73
relative permittivity (313.2 K, 30300 kPa): 9.95 ± 0.74
relative permittivity (313.2 K, 31600 kPa): 9.98 ± 0.74
relative permittivity (322.8 K, 2400 kPa): 8.08 ± 0.6
relative permittivity (322.8 K, 4500 kPa): 8.27 ± 0.61
relative permittivity (322.8 K, 6500 kPa): 8.43 ± 0.62
relative permittivity (322.8 K, 8400 kPa): 8.56 ± 0.63
relative permittivity (322.8 K, 10300 kPa): 8.68 ± 0.64
relative permittivity (322.8 K, 12100 kPa): 8.79 ± 0.65
relative permittivity (322.8 K, 14300 kPa): 8.89 ± 0.66
relative permittivity (322.8 K, 16300 kPa): 8.98 ± 0.67
relative permittivity (322.8 K, 18300 kPa): 9.07 ± 0.67
relative permittivity (322.8 K, 20200 kPa): 9.16 ± 0.68
relative permittivity (322.8 K, 22300 kPa): 9.24 ± 0.68
relative permittivity (322.8 K, 24400 kPa): 9.32 ± 0.69
relative permittivity (322.8 K, 26200 kPa): 9.38 ± 0.69
relative permittivity (322.8 K, 27900 kPa): 9.43 ± 0.7
relative permittivity (322.8 K, 28800 kPa): 9.46 ± 0.7
relative permittivity (322.8 K, 31000 kPa): 9.49 ± 0.7
relative permittivity (333 K, 1500 kPa): 7.35 ± 0.55
relative permittivity (333 K, 2600 kPa): 7.45 ± 0.55
relative permittivity (333 K, 4400 kPa): 7.66 ± 0.57
relative permittivity (333 K, 6300 kPa): 7.84 ± 0.58
relative permittivity (333 K, 8400 kPa): 8.01 ± 0.59
relative permittivity (333 K, 10300 kPa): 8.14 ± 0.6
relative permittivity (333 K, 12400 kPa): 8.26 ± 0.61
relative permittivity (333 K, 14400 kPa): 8.38 ± 0.62
relative permittivity (333 K, 16300 kPa): 8.48 ± 0.63
relative permittivity (333 K, 18300 kPa): 8.58 ± 0.64
relative permittivity (333 K, 20100 kPa): 8.66 ± 0.64
relative permittivity (333 K, 21100 kPa): 8.7 ± 0.64
relative permittivity (333 K, 22400 kPa): 8.73 ± 0.65
relative permittivity (333 K, 24100 kPa): 8.8 ± 0.65
relative permittivity (333 K, 26000 kPa): 8.87 ± 0.66
relative permittivity (333 K, 27400 kPa): 8.93 ± 0.66
relative permittivity (333 K, 29300 kPa): 8.99 ± 0.67
relative permittivity (343.4 K, 2200 kPa): 6.66 ± 0.5
relative permittivity (343.4 K, 3000 kPa): 6.79 ± 0.5
relative permittivity (343.4 K, 4000 kPa): 6.95 ± 0.52
relative permittivity (343.4 K, 5000 kPa): 7.06 ± 0.52
relative permittivity (343.4 K, 6200 kPa): 7.2 ± 0.53
relative permittivity (343.4 K, 8100 kPa): 7.4 ± 0.55
relative permittivity (343.4 K, 9200 kPa): 7.47 ± 0.55
relative permittivity (343.4 K, 10400 kPa): 7.58 ± 0.56
relative permittivity (343.4 K, 12300 kPa): 7.71 ± 0.57
relative permittivity (343.4 K, 14200 kPa): 7.83 ± 0.58
relative permittivity (343.4 K, 16200 kPa): 7.94 ± 0.59
relative permittivity (343.4 K, 18200 kPa): 8.04 ± 0.6
relative permittivity (343.4 K, 20300 kPa): 8.14 ± 0.6
relative permittivity (343.4 K, 22200 kPa): 8.22 ± 0.61
relative permittivity (343.4 K, 24200 kPa): 8.31 ± 0.62
relative permittivity (343.4 K, 26000 kPa): 8.37 ± 0.62
relative permittivity (343.4 K, 28000 kPa): 8.45 ± 0.63
relative permittivity (343.4 K, 29500 kPa): 8.5 ± 0.63
relative permittivity (353.4 K, 2600 kPa): 6.05 ± 0.45
relative permittivity (353.4 K, 4600 kPa): 6.39 ± 0.47
relative permittivity (353.4 K, 6400 kPa): 6.65 ± 0.49
relative permittivity (353.4 K, 8100 kPa): 6.84 ± 0.51
relative permittivity (353.4 K, 10000 kPa): 6.99 ± 0.52
relative permittivity (353.4 K, 12200 kPa): 7.15 ± 0.53
relative permittivity (353.4 K, 14400 kPa): 7.29 ± 0.54
relative permittivity (353.4 K, 16400 kPa): 7.41 ± 0.55
relative permittivity (353.4 K, 18300 kPa): 7.52 ± 0.56
relative permittivity (353.4 K, 20200 kPa): 7.6 ± 0.56
relative permittivity (353.4 K, 22200 kPa): 7.7 ± 0.57
relative permittivity (353.4 K, 24400 kPa): 7.78 ± 0.58
relative permittivity (353.4 K, 26400 kPa): 7.86 ± 0.58
relative permittivity (353.4 K, 28600 kPa): 7.95 ± 0.59
relative permittivity (363.8 K, 3600 kPa): 5.46 ± 0.41
relative permittivity (363.8 K, 4300 kPa): 5.73 ± 0.43
relative permittivity (363.8 K, 6100 kPa): 6.09 ± 0.45
relative permittivity (363.8 K, 8200 kPa): 6.37 ± 0.47
relative permittivity (363.8 K, 10200 kPa): 6.57 ± 0.49
relative permittivity (363.8 K, 12200 kPa): 6.74 ± 0.5
relative permittivity (363.8 K, 14200 kPa): 6.88 ± 0.51
relative permittivity (363.8 K, 16200 kPa): 7.01 ± 0.52
relative permittivity (363.8 K, 18200 kPa): 7.12 ± 0.53
relative permittivity (363.8 K, 20300 kPa): 7.22 ± 0.53
relative permittivity (363.8 K, 22200 kPa): 7.31 ± 0.54
relative permittivity (363.8 K, 24300 kPa): 7.41 ± 0.55
relative permittivity (363.8 K, 26000 kPa): 7.48 ± 0.55
relative permittivity (363.8 K, 28200 kPa): 7.56 ± 0.56
relative permittivity (363.8 K, 30000 kPa): 7.63 ± 0.57
relative permittivity (363.8 K, 31200 kPa): 7.66 ± 0.57
relative permittivity (372.9 K, 4000 kPa): 4.66 ± 0.36
relative permittivity (372.9 K, 6300 kPa): 5.55 ± 0.42
relative permittivity (372.9 K, 8200 kPa): 5.86 ± 0.44
relative permittivity (372.9 K, 10100 kPa): 6.08 ± 0.45
relative permittivity (372.9 K, 12200 kPa): 6.27 ± 0.46
relative permittivity (372.9 K, 14200 kPa): 6.42 ± 0.48
relative permittivity (372.9 K, 16000 kPa): 6.53 ± 0.48
relative permittivity (372.9 K, 18000 kPa): 6.65 ± 0.49
relative permittivity (372.9 K, 20200 kPa): 6.75 ± 0.5
relative permittivity (372.9 K, 22200 kPa): 6.85 ± 0.51
relative permittivity (372.9 K, 24200 kPa): 6.94 ± 0.51
relative permittivity (372.9 K, 26200 kPa): 7.02 ± 0.52
relative permittivity (372.9 K, 28100 kPa): 7.09 ± 0.53
relative permittivity (372.9 K, 29800 kPa): 7.15 ± 0.53
relative permittivity (372.9 K, 30700 kPa): 7.18 ± 0.53
relative permittivity (383.1 K, 4800 kPa): 3.97 ± 0.33
relative permittivity (383.1 K, 5800 kPa): 4.7 ± 0.37
relative permittivity (383.1 K, 6800 kPa): 5.06 ± 0.38
relative permittivity (383.1 K, 8200 kPa): 5.35 ± 0.4
relative permittivity (383.1 K, 10400 kPa): 5.65 ± 0.42
relative permittivity (383.1 K, 12000 kPa): 5.8 ± 0.43
relative permittivity (383.1 K, 14200 kPa): 6.09 ± 0.45
relative permittivity (383.1 K, 16200 kPa): 6.24 ± 0.46
relative permittivity (383.1 K, 18400 kPa): 6.38 ± 0.47
relative permittivity (383.1 K, 20000 kPa): 6.48 ± 0.48
